Laboratory results from patent US7572885B2, “Isolated GAGE-7B and 8 proteins” (Ludwig Institute For Cancer Research, priority 1998, dated 2009).

Legend:
[1] = test system: GAGE genes expression in PHA stimulated PBLs; experiment: Induction of GAGE gene expression by demethylation in PHA stimulated PBLs; type: cell-based; conditions: 1 uM, 72 hours in culture medium
Description: (§1) These experiments were designed to determine expression of GAGE genes in various cell and tumor types. For each type of cell assayed, total RNA was extracted, using standard guanidium-isothiocyanate procedures, as taught by e.g., Davis, et al. in Basic Methods In Molecular Biology, Elsevier Science Publishing Co., New York (1986), pp. 130-135. Reverse transcription was carried out on 2 ug samples of the total RNA, using 2 mM of Oligo(dT)15 primer, in a reaction volume of 20 ul. Portions of the resulting cDNA ( 1/20 of the product), were used in the PCR amplification. In order to amplify GAGE-1, 2, and 8, the primers used were:
(§2) For GAGE-3, 4, 5, 6; & 7B, the primers were: • 5′- GACCAAGGCG CTATGTAC-3′ • (sense, SEQ ID NO: 6) and SEQ ID NO: 5 For all amplifications, the denaturation step was 94° C. for 5 minutes, then 30 cycles of amplification (1 minute at 94° C., 2 minutes at 58° C., 2 minutes at 72° C.), then a final extension step of 72° C. for 15 minutes. The products were analyzed by agarose gel electrophoresis, with RNA integrity being checked by reverse transcription and amplification of β-actin mRNA.
(§3) In order to determine if expression of GAGE genes could be induced by demethylation, samples of cultured tumor and normal cells were incubated for 72 hours in culture medium containing 1 uM 5-aza-2′-deoxycytidine. SEQ ID NOS: 4 and 5, supra, were used in the amplification protocol.

[2] = test system: GAGE 1, 2, and 8 expression in sarcoma and melanoma cell lines; experiment: Induction of GAGE gene expression by demethylation, RT-PCR with SEQ ID NOS: 4 and 5; type: cell-based; conditions: 1 uM, 72 hours in culture medium
Description: as §1, §2, §3

## Nc1ncn([C@H]2C[C@H](O)[C@@H](CO)O2)c(=O)n1 [5-aza-2′-deoxycytidine]
[1]
  expression of all GAGE genes following treatment: expressed
[2]
  expression of GAGE 1, 2, and 8 after demethylating treatment: induced
